Measurements from ChEMBL document CHEMBL1201861, “Genomics of Drug Sensitity in Cancer screening data, Wellcome Trust Sanger Institute”.

Experiments:
Assay in all cases: cells
Format in all cases: functional, cell-based, Homo sapiens
[1] = system: BPH-1;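 further: cell viability assay measuring growth inhibition of human BPH-1 cells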
Description: SANGER: Inhibition of human BPH-1 cell growth in a cell viability assay.

[2] = system: HCC1395;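 further: growth inhibition of HCC1395 cells, read out by a cell viability assay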
Description: SANGER: Inhibition of human HCC1395 cell growth in a cell viability assay.

[3] = system: SK-LU-1;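 further: cell viability assay measuring growth inhibition of human SK-LU-1 cells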
Description: SANGER: Inhibition of human SK-LU-1 cell growth in a cell viability assay.

[4] = system: C3A;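 further: growth inhibition of C3A human cells, quantified with a cell viability readout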
Description: SANGER: Inhibition of human C3A cell growth in a cell viability assay.

[5] = system: CAKI-1;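 further: growth inhibition of CAKI-1 cells, measured by a cell viability assay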
Description: SANGER: Inhibition of human CAKI-1 cell growth in a cell viability assay.

[6] = system: AGS;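 further: growth inhibition of AGS cells, determined with a cell viability assay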
Description: SANGER: Inhibition of human AGS cell growth in a cell viability assay.

[7] = system: IGR-1;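 further: growth inhibition of human IGR-1 cells, read out with a cell viability assay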
Description: SANGER: Inhibition of human IGR-1 cell growth in a cell viability assay.

[8] = system: KYSE-520 cell line;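 further: growth inhibition of human KYSE-520 cells, read out with a viability assay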
Description: SANGER: Inhibition of human KYSE-520 cell growth in a cell viability assay.

[9] = system: SNU-449
Description: SANGER: Inhibition of human SNU-449 cell growth in a cell viability assay.

[10] = system: DBTRG-05MG;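 further: cell viability assay measuring growth inhibition of human DBTRG-05MG cells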
Description: SANGER: Inhibition of human DBTRG-05MG cell growth in a cell viability assay.

[11] = system: YH-13;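 further: cell viability readout of growth suppression in the human YH-13 cell line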
Description: SANGER: Inhibition of human YH-13 cell growth in a cell viability assay.

[12] = system: SIMA; conditions: Homo sapiens, SIMA;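 further: growth inhibition of SIMA cells, measured with a cell viability readout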
Description: SANGER: Inhibition of human SIMA cell growth in a cell viability assay.

[13] = system: MHH-ES-1;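 further: cell growth inhibition measured by a cell viability assay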
Description: SANGER: Inhibition of human MHH-ES-1 cell growth in a cell viability assay.

[14] = system: Daoy;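 further: daoy cell growth inhibition, read out as cell viability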
Description: SANGER: Inhibition of human Daoy cell growth in a cell viability assay.

[15] = system: NCI-H292;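 further: growth inhibition of NCI-H292 cells, read out with a cell viability assay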
Description: SANGER: Inhibition of human NCI-H292 cell growth in a cell viability assay.

[16] = system: A-431;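 further: growth inhibition of A-431 cells, determined with a cell viability read-out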
Description: SANGER: Inhibition of human A431 cell growth in a cell viability assay.

[17] = system: PANC-03-27
Description: SANGER: Inhibition of human PANC-03-27 cell growth in a cell viability assay.

[18] = system: SNU-423
Description: SANGER: Inhibition of human SNU-423 cell growth in a cell viability assay.

[19] = system: EFO-27;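 further: growth inhibition of EFO-27 cells, read out with a cell viability assay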
Description: SANGER: Inhibition of human EFO-27 cell growth in a cell viability assay.

[20] = system: BXPC-3;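 further: growth inhibition of human BxPC-3 cells, read out by a cell viability assay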
Description: SANGER: Inhibition of human BxPC-3 cell growth in a cell viability assay.

[21] = system: YAPC;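 further: growth inhibition of YAPC cells, measured with a cell viability assay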
Description: SANGER: Inhibition of human YAPC cell growth in a cell viability assay.

[22] = system: OC-314
Description: SANGER: Inhibition of human OC-314 cell growth in a cell viability assay.

[23] = system: EVSA-T; conditions: Homo sapiens, EVSA-T;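 further: growth inhibition of EVSA-T cells, read out with a cell viability assay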
Description: SANGER: Inhibition of human EVSA-T cell growth in a cell viability assay.

[24] = system: S-117
Description: SANGER: Inhibition of human S-117 cell growth in a cell viability assay.

[25] = system: SCC-4;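 further: growth inhibition of human SCC-4 cells, read out as cell viability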
Description: SANGER: Inhibition of human SCC-4 cell growth in a cell viability assay.

[26] = system: KOSC-2;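 further: growth inhibition of KOSC-2 cells, read out by a cell viability assay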
Description: SANGER: Inhibition of human KOSC-2 cell growth in a cell viability assay.

[27] = system: U-251;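 further: growth inhibition of human U-251 cells, read out through a cell viability assay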
Description: SANGER: Inhibition of human U251 cell growth in a cell viability assay.

[28] = system: KNS-62;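 further: inhibition of cell growth, read out with a cell viability assay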
Description: SANGER: Inhibition of human KNS-62 cell growth in a cell viability assay.

[29] = system: MDA-MB-231
Description: SANGER: Inhibition of human MDA-MB-231 cell growth in a cell viability assay.

[30] = system: HGC-27;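 further: growth inhibition of human HGC-27 cells, read out in a cell viability assay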
Description: SANGER: Inhibition of human HGC-27 cell growth in a cell viability assay.

[31] = system: HCT-116
Description: SANGER: Inhibition of human HCT-116 cell growth in a cell viability assay.

[32] = system: OVCAR-8;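 further: growth inhibition of human OVCAR-8 cells, read out by a cell viability assay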
Description: SANGER: Inhibition of human OVCAR-8 cell growth in a cell viability assay.

[33] = system: HEC-1;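 further: growth inhibition of the cell line, read out with a cell viability assay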
Description: SANGER: Inhibition of human HEC-1 cell growth in a cell viability assay.

[34] = system: NCI-H1573;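 further: growth inhibition of NCI-H1573 cells, read out with a cell viability assay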
Description: SANGER: Inhibition of human NCI-H1573 cell growth in a cell viability assay.

[35] = system: HCC1419;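 further: growth inhibition of human HCC1419 cells, read out as cell viability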
Description: SANGER: Inhibition of human HCC1419 cell growth in a cell viability assay.

[36] = system: MDA-MB-175-VII
[37] = system: NCI-H2087;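 further: growth inhibition determined with a cell viability readout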
Description: SANGER: Inhibition of human NCI-H2087 cell growth in a cell viability assay.

[38] = system: EGI-1;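 further: cell viability readout used to gauge growth inhibition of EGI-1 cells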
Description: SANGER: Inhibition of human EGI-1 cell growth in a cell viability assay.

CC(C)c1ccccc1Cc1cc(C(=O)Nc2ccc(S(=O)(=O)c3ccccc3C(C)(C)C)cc2)c(O)c(O)c1O
IC50 ([1]; Homo sapiens, BPH-1): 0.286 µM | IC50 ([2]; Homo sapiens, HCC1395): 7.11 µM | IC50 ([3]; Homo sapiens, SK-LU-1): 0.711 µM | IC50 ([4]; Homo sapiens, C3A): 1.82 µM | IC50 ([5]; Homo sapiens, CAKI-1): 0.216 µM | IC50 ([6]; Homo sapiens, AGS): 0.0375 µM | IC50 ([7]; Homo sapiens, IGR-1): 0.301 µM | IC50 ([8]; Homo sapiens, KYSE-520): 4.14 µM | IC50 ([9]; Homo sapiens, SNU-449): 0.372 µM | IC50 ([10]; Homo sapiens, DBTRG-05MG): 1.46 µM | IC50 ([11]; Homo sapiens, YH-13): 0.0706 µM | IC50 [12]: 0.664 µM | IC50 ([13]; Homo sapiens, MHH-ES-1): 0.5 µM | IC50 ([14]; Homo sapiens, Daoy): 0.141 µM | IC50 ([15]; Homo sapiens, NCI-H292): 0.36 µM | IC50 ([16]; Homo sapiens, A-431): 1.47 µM | IC50 ([17]; Homo sapiens, PANC-03-27): 0.474 µM | IC50 ([18]; Homo sapiens, SNU-423): 0.325 µM | IC50 ([19]; Homo sapiens, EFO-27): 0.117 µM | IC50 ([20]; Homo sapiens, BXPC-3): 2.48 µM | IC50 ([21]; Homo sapiens, YAPC): 0.801 µM | IC50 ([22]; Homo sapiens, OC-314): 0.21 µM | IC50 [23]: 0.14 µM | IC50 ([24]; Homo sapiens, S-117): 0.213 µM | IC50 ([25]; Homo sapiens, SCC-4): 1.3 µM | IC50 ([26]; Homo sapiens, KOSC-2): 0.496 µM | IC50 ([27]; Homo sapiens, U-251): 0.388 µM | IC50 ([28]; Homo sapiens, KNS-62): 0.559 µM | IC50 ([29]; Homo sapiens, MDA-MB-231): 0.108 µM | IC50 ([30]; Homo sapiens, HGC-27): 0.14 µM | IC50 ([31]; Homo sapiens, HCT-116): 0.0527 µM | IC50 ([32]; Homo sapiens, OVCAR-8): 0.471 µM | IC50 ([33]; Homo sapiens, HEC-1): 0.0814 µM | IC50 ([34]; Homo sapiens, NCI-H1573): 7.08 µM | IC50 ([35]; Homo sapiens, HCC1419): 0.918 µM | IC50 ([36]; Homo sapiens, MDA-MB-175-VII): 0.451 µM | IC50 ([37]; Homo sapiens, NCI-H2087): 0.575 µM | IC50 ([38]; Homo sapiens, EGI-1): 1.25 µM

CISPLATIN
IC50 ([1]; bph-1): 17.9 µM | IC50 ([2]; hcc1395): 143 µM | IC50 ([3]; sk-lu-1): 7.38 µM | IC50 ([4]; c3a): 407 µM | IC50 ([5]; caki-1): 7.27 µM | IC50 ([6]; ags): 24.6 µM | IC50 ([7]; igr-1): 575 µM | IC50 ([8]; kyse-520): 21.8 µM | IC50 ([9]; snu-449): 72 µM | IC50 ([10]; dbtrg-05mg): 15.9 µM | IC50 ([11]; yh-13): 12.1 µM | IC50 ([13]; mhh-es-1): 55 µM | IC50 ([14]; daoy): 1.51 µM | IC50 ([15]; nci-h292): 364 µM | IC50 ([16]; a-431): 572 µM | IC50 ([17]; panc-03-27): 38.3 µM | IC50 ([18]; snu-423): 111 µM | IC50 ([19]; efo-27): 13.2 µM | IC50 ([20]; bxpc-3): 22.3 µM | IC50 ([21]; yapc): 1160 µM | IC50 ([22]; oc-314): 14 µM | IC50 ([24]; s-117): 4.53 µM | IC50 ([25]; scc-4): 31 µM | IC50 ([26]; kosc-2): 2.91 µM | IC50 ([27]; u-251): 11.6 µM | IC50 ([28]; kns-62): 14 µM | IC50 ([29]; mda-mb-231): 264 µM | IC50 ([30]; hgc-27): 6.65 µM | IC50 ([31]; hct-116): 8.68 µM | IC50 ([32]; ovcar-8): 19.9 µM | IC50 ([33]; hec-1): 13.3 µM | IC50 ([34]; nci-h1573): 112 µM | IC50 ([35]; hcc1419): 29.5 µM | IC50 ([36]; mda-mb-175-vii): 69.7 µM | IC50 ([37]; nci-h2087): 14.5 µM | IC50 ([38]; egi-1): 11.1 µM
